Some test systems named below: HCT-15 colon; IGROV1 ovarian; LOX IMVI melanoma; MOLT-4 leukemia; NCI-H226 lung; OVCAR-4 ovarian; SK-MEL-2 melanoma; SN12C renal; SW-620 colon; UACC-62 melanoma.
Experiment in all cases: NCI anticancer screen, dose series, 48 h

“And” between values parts separate entries of the source, which are not always exact repeats. Equal entries are not always repeated.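 Briefly, cells in 96-well plates were exposed to five compound concentrations for 48 h, and endpoints were estimated by linear interpolation. GI50 marks 50% less growth. TGI: concentration producing complete growth inhibition.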

`O=C(O)c1ccc([N+](=O)[O-])c(P(=O)(O)O)c1`: the TGI in the assay on HCT-15 colon, in the assay with IGROV1 ovarian, in the assay on LOX IMVI melanoma, with MOLT-4 leukemia, with NCI-H226 lung and in the assay with OVCAR-4 ovarian was more than 100 µM each time. The TGI with SK-MEL-2 melanoma, in the assay on SN12C renal, with SW-620 colon and in the assay on UACC-62 melanoma was more than 100 µM throughout.

Take `CCNC(=O)Nc1ccc(-c2nc3c(c(N4CCOC[C@@H]4C)n2)CCN(C2COC2)C3)cc1`: the GI50 in the assay on HCT-15 colon is 0.638 µM and 0.45 µM; in the assay with IGROV1 ovarian it was 0.115 µM and 0.071 µM; in the assay with LOX IMVI melanoma, 0.411 µM and 0.329 µM; in the assay with MOLT-4 leukemia, 0.521 µM and 0.911 µM; in the assay on NCI-H226 lung, 0.247 µM and 0.119 µM; in the assay on OVCAR-4 ovarian, 0.154 µM and 0.259 µM. Moreover, the GI50 in the assay on SK-MEL-2 melanoma was 0.295 µM and 0.392 µM; in the assay on SN12C renal, 0.31 µM and 0.285 µM; with SW-620 colon, 0.793 µM and 0.61 µM; with UACC-62 melanoma, 0.194 µM and 0.0727 µM. Further, the TGI is more than 100 µM in the assay with HCT-15 colon; 5.38 µM and 0.751 µM in the assay on IGROV1 ovarian; more than 100 µM in the assay on LOX IMVI melanoma; more than 100 µM with MOLT-4 leukemia; 1.71 µM and > 7.24 µM in the assay with OVCAR-4 ovarian; 3 µM and 3.43 µM with SK-MEL-2 melanoma. Moreover, the TGI is more than 100 µM in the assay on SN12C renal; more than 100 µM in the assay with SW-620 colon; 1.28 µM and 0.994 µM in the assay with UACC-62 melanoma.

Regarding `Cc1nc(NC(=O)COc2cccc(/C=C3\COc4ccccc4C3=O)c2)sc1C`, the GI50 in the assay with HCT-15 colon was 2.04 µM; with IGROV1 ovarian, 0.43 µM; in the assay on LOX IMVI melanoma it was 1.01 µM; in the assay with MOLT-4 leukemia it was 3.5 µM; in the assay with NCI-H226 lung it was 3.32 µM; in the assay on OVCAR-4 ovarian, 4.02 µM. Besides, the GI50 with SK-MEL-2 melanoma was 1.62 µM; in the assay on SN12C renal it was 2.01 µM; in the assay on SW-620 colon, 1.08 µM; in the assay with UACC-62 melanoma, 2.05 µM. In addition, the TGI in the assay on HCT-15 colon is 5.2 µM; with IGROV1 ovarian, 0.902 µM; in the assay on LOX IMVI melanoma it was 2.55 µM; in the assay with MOLT-4 leukemia it was more than 100 µM; in the assay on NCI-H226 lung, 9.66 µM; in the assay with OVCAR-4 ovarian it was 13.9 µM. Moreover, the TGI was 3.17 µM in the assay on SK-MEL-2 melanoma, 4.63 µM in the assay with SN12C renal, 2.39 µM in the assay with SW-620 colon and 4.51 µM in the assay on UACC-62 melanoma.

On to `Oc1ccc(Cl)cc1Cc1cc(Cl)cc(Cc2cc(Cl)ccc2O)c1O`, for which the TGI with HCT-15 colon worked out at 12.2 µM; in the assay on IGROV1 ovarian it was 13.5 µM; in the assay with LOX IMVI melanoma, 9.82 µM; in the assay on MOLT-4 leukemia, 8.67 µM; with NCI-H226 lung, 7.07 µM; in the assay on OVCAR-4 ovarian it was 16.2 µM. For the same molecule, the TGI with SK-MEL-2 melanoma is 7.68 µM; in the assay with SN12C renal, 8.21 µM; in the assay with SW-620 colon it was 13.5 µM; with UACC-62 melanoma it was 10.1 µM.

With `O=Cc1ncc(-c2ccc(C(F)(F)F)cc2)c(NC2CCCCCC2)n1`, the GI50 in the assay with HCT-15 colon, in the assay with IGROV1 ovarian, in the assay with LOX IMVI melanoma, with MOLT-4 leukemia, with NCI-H226 lung and in the assay with OVCAR-4 ovarian was more than 10 µM throughout. For the same molecule, the GI50 with SK-MEL-2 melanoma, in the assay on SN12C renal, in the assay with SW-620 colon and with UACC-62 melanoma was more than 10 µM each time. The TGI with HCT-15 colon, in the assay with IGROV1 ovarian, with LOX IMVI melanoma, in the assay with MOLT-4 leukemia, in the assay with NCI-H226 lung and in the assay on OVCAR-4 ovarian was more than 10 µM each time. The TGI in the assay with SK-MEL-2 melanoma, in the assay with SN12C renal, with SW-620 colon and with UACC-62 melanoma was more than 10 µM in each case.

Consider `CC(=O)c1cc2c3c(c1)c1cc4c(cc1c(=O)n3CC2)OCO4`, for which the TGI in the assay with HCT-15 colon was more than 100 µM; in the assay on IGROV1 ovarian, more than 100 µM; with LOX IMVI melanoma, more than 100 µM; in the assay on MOLT-4 leukemia, 9.92 µM; in the assay with NCI-H226 lung, more than 100 µM; in the assay with OVCAR-4 ovarian, more than 100 µM. Also, the TGI in the assay on SK-MEL-2 melanoma was more than 100 µM; with SN12C renal, more than 100 µM; with SW-620 colon, more than 100 µM; in the assay with UACC-62 melanoma, 53.9 µM.

As to `CN(C)c1cc2c(Nc3ccc4nc(Cc5ccccc5)[nH]c4c3)ncnc2cn1`, the GI50 in the assay with HCT-15 colon is more than 16.6 µM; in the assay with IGROV1 ovarian it was 9.21 µM; in the assay on LOX IMVI melanoma it was more than 17.4 µM; with MOLT-4 leukemia it was more than 25 µM; in the assay on NCI-H226 lung it was more than 18 µM; in the assay on OVCAR-4 ovarian, more than 20.4 µM. Also, the GI50 with SK-MEL-2 melanoma is more than 16.3 µM; with SN12C renal, more than 16.1 µM; in the assay with SW-620 colon, more than 21.5 µM; with UACC-62 melanoma it was more than 18.3 µM. Further, the TGI in the assay on HCT-15 colon, in the assay on IGROV1 ovarian, with LOX IMVI melanoma, in the assay on MOLT-4 leukemia, with NCI-H226 lung and in the assay with OVCAR-4 ovarian was more than 25 µM each time. Moreover, the TGI in the assay on SK-MEL-2 melanoma, in the assay on SN12C renal, in the assay on SW-620 colon and in the assay with UACC-62 melanoma was more than 25 µM throughout.

For the molecule `COc1cc(C2=Nc3c/c(=C\c4c(O)[nH]c5ccc(Cl)cc45)ccc3=N2)cc(OC)c1OC`, the GI50 with HCT-15 colon was 3.27 µM; in the assay with IGROV1 ovarian it was 5.46 µM; in the assay with LOX IMVI melanoma it was 1.74 µM; in the assay on MOLT-4 leukemia, 2.43 µM; with NCI-H226 lung, 10.3 µM; with OVCAR-4 ovarian, 2.18 µM. Further, the GI50 in the assay with SK-MEL-2 melanoma is 9.01 µM; in the assay with SN12C renal, 2.11 µM; with SW-620 colon, 1.98 µM; in the assay with UACC-62 melanoma, 1.94 µM. Further, the TGI in the assay on HCT-15 colon is 11.6 µM; in the assay with IGROV1 ovarian, 20.3 µM; in the assay on LOX IMVI melanoma, 4.3 µM; in the assay with MOLT-4 leukemia, 12.9 µM; in the assay with NCI-H226 lung, 29.7 µM; with OVCAR-4 ovarian, 7.9 µM. For the same molecule, the TGI in the assay with SK-MEL-2 melanoma turned out to be 30.2 µM; with SN12C renal, 6.5 µM; with SW-620 colon, 4.41 µM; in the assay with UACC-62 melanoma, 7.97 µM.

The values above are taken from PubChem BioAssay (NCI).
